Earlier results in patent US20250339386A1, “VITAMIN K2 FOR USE IN TREATMENT OF CORONARY ARTERY CALCIFICATION” (Region Syddanmark, priority 2022, published 2025).

Assays:
[1] = test system: aortic valve calcification; settings: high-dose supplementation; male subjects with aortic valve calcification score above 300 arbitrary units
[2] = test system: CAC progression; settings: asymptomatic older men and women 60-80 years, with recommended calcium and vitamin D
[3] = test system: human monocyte-derived macrophages; settings: cells pretreated; dose response relationship

Molecule: Menaquinone [vitamin K2]
- Aortic valve calcification progression [1]: non-significantly decreased

Molecule: CC1=C(C/C=C(\C)CCC[C@H](C)CCC[C@H](C)CCCC(C)C)C(=O)c2ccccc2C1=O [vitamin K1, phylloquinone]
- Progression of existing CAC [2]: reduced the progression of existing CAC

Molecule: CC(C)=CCC/C(C)=C/CC/C(C)=C/CC/C(C)=C/CC/C(C)=C/CC/C(C)=C/CC/C(C)=C/CC1=C(C)C(=O)c2ccccc2C1=O [menaquinone-7]
- Cytokine release (TNF-α, IL-1α, IL-1β) [3]: inhibition of cytokine release
